Values of other authors as cited in patent US20260355312A1, “COMBINED THERAPY DRUG COMPRISING ANTI-HER2 BISPECIFIC ANTIBODY AND USE THEREOF” (JIANGSU ALPHAMAB BIOPHARMACEUTICALS CO., LTD., priority 2023, published 2026).

Test system: tumor

CC(=O)O[C@@]12CO[C@@H]1C[C@H](O)[C@@]1(C)C(=O)[C@H](O)C3=C(C)[C@@H](OC(=O)[C@H](O)[C@@H](NC(=O)OC(C)(C)C)c4ccccc4)C[C@@](O)([C@@H](OC(=O)c4ccccc4)[C@H]21)C3(C)C [Docetaxel, docetaxel]
antitumor activity compared to paclitaxel: stronger antitumor activity than paclitaxel
